Measured values published in patent publication US20240216315A1, “METHODS AND COMPOSITIONS FOR TREATMENT OF DIABETIC RETINOPATHY AND RELATED CONDITIONS” (Ocuphire Pharma, Inc., priority 2021, published 2024).

Columns and labels:
[1] = Phase 2 clinical study, safety: blood chemistry (alanine and aspartate aminotransferase in subjects' blood); type: in vivo, human; conditions: combined placebo and Compound 1 patients
Text: (§1) The study is to be configured as a placebo-controlled, double-masked, randomized, Phase 2 study in approximately 100 subjects with moderately severe to severe NPDR (diabetic retinopathy severity score [DRSS] Level 47 or 53, see FIG. 1) or mild PDR (DRSS Level 61), evaluating safety and efficacy following administration of Compound 1 twice daily for 24 weeks. The study will have a 1:1 randomization (placebo: Compound 1). Randomization will be stratified by level of disease severity (NPDR or PDR). Subjects with mild PDR will be capped at 20% for each arm. Efficacy evaluations at 12 and/or 24 weeks will include DRSS, center-involved diabetic macular edema (DME), moderate PDR or PDR-related adverse events (AEs), best-corrected visual acuity (BCVA), and central subfield thickness (CST). Further experimental procedures and results are described below.
(§2) At the Qualification/Baseline (Visit 2, Day 1): • The subject will be randomized into the study. • Study medication will be dispensed in accordance with the subjects randomized treatment arm. • Blood samples will be drawn pre-dose for baseline levels and on Visit 9 (Week 24) for exploratory biomarker processing (i.e., cytokine and Ref-1 levels) to evaluate pharmacodynamic properties. • Subjects will be instructed to administer their study medication (APX3330 or placebo) cach day, with 3 tablets every morning and 2 tablets every evening. Study medication should be taken at approximately the same time each day and may be taken with or without food.
At the Second Treatment Visit (Visit 6, Week 12±2 Days), subjects will return to the site for the following series of safety and efficacy assessments: drug accountability, concomitant medications, urine pregnancy test (only for women of childbearing potential), HR/BP/vital signs, BCVA (ETDRS), DRSS, CST (SD-OCT), blood draw for PK, blood chemistry, blood hematology, biomicroscopy, ophthalmoscopy, IOP, eGFR, and AEs. Following the completion of the assessments, used medication kits will be collected for accountability (by counting the number of unused tablets), and new study medication kits will be dispensed.
At the Third Treatment Visit (Visit 9, Week 24±2 Days), subjects will return to the site for the following series of safety and efficacy assessments: drug accountability, concomitant medications, urine pregnancy test (only for women of childbearing potential), physical examination, HR/BP/vital signs, BCVA (ETDRS), DRSS, CST (SD-OCT), blood chemistry, blood hematology, biomicroscopy, ophthalmoscopy, IOP, cGFR, AEs, and blood draw for exploratory biomarkers (ELISA, cytokine panel, comprehensive metabolic panel). Visit 9 (Week 24) is the end of the treatment period. Study medication will be returned for accountability (by counting the number of unused tablets), and no further study medication will be dispensed.
Study subjects will receive study medication as set forth in Table 1 according to the Treatment Group to which the subject is assigned. Subjects will be instructed to take study medication at approximately the same time each day, and the medication may be taken with or without food. […]

[2] = Phase 2 clinical study, safety: treatment-emergent adverse events; type: in vivo, human
Text: as §1, §2
Telephone safety calls will be conducted for Visit 3 (Week 1±2 Days), Visit 5 (Week 8±2 Days), Visit 7 (Week 16±2 Days), and Visit 8 (Week 20±2 Days). The safety assessment will include review of drug compliance, concomitant medications, AEs, and urine pregnancy test at home (only for women of childbearing potential).
Study subjects will receive study medication as set forth in Table 1 according to the Treatment Group to which the subject is assigned. […]

With `CCCCCCCCC/C(=C\C1=C(C)C(=O)C(OC)=C(OC)C1=O)C(=O)O` [Compound 1, (E)-2-((4,5-dimethoxy-2-methyl-3,6-dioxocyclohexa-1,4-dien-1-yl)methylene)undecanoic acid] the “change in mean concentration of alanine aminotransferase in subjects' blood relative to Baseline” value ([1]; week 12, 50 subjects) was −0.8 IU/L, the “change in mean concentration of aspartate aminotransferase in subjects' blood relative to Baseline” value ([1]; week 12, 50 subjects) was −0.5 IU/L and the “reduction in mean concentration of alanine aminotransferase in subjects' blood relative to Baseline” value ([1]; week 12, 50 subjects) was 3.6%. The “reduction in mean concentration of aspartate aminotransferase in subjects' blood relative to Baseline” value ([1]; week 12, 50 subjects) was 3%, the “change in mean concentration of alanine aminotransferase in subjects' blood relative to Baseline” value ([1]; week 24, 22 subjects) was −2.1 IU/L and the “change in mean concentration of aspartate aminotransferase in subjects' blood relative to Baseline” value ([1]; week 24, 22 subjects) was −1.8 IU/L. The “reduction in mean concentration of alanine aminotransferase in subjects' blood relative to Baseline” value ([1]; week 24, 22 subjects) was 9.4%, the “reduction in mean concentration of aspartate aminotransferase in subjects' blood relative to Baseline” value ([1]; week 24, 22 subjects) was 9% and the “safety profile in the patient population enrolled” value ([2]; Compound 1 administered orally according to the study protocol (600 mg/day)) was “good safety profile”. For the same compound, the “total of treatment-emergent adverse events observed” value ([2]; from the 100 subjects enrolled, combined placebo and Compound 1 patients) was 83 and the “subjects that reported at least one treatment-emergent adverse event” value ([2]; of 100 subjects enrolled, combined placebo and Compound 1 patients) was 41.
